Measured values taken from patent publication US7524869B2, “Taxanes having a C10 ester substituent” (Florida State University Research Foundation, Inc., priority 2000, dated 2009).

test system: HCT116; test: In vitro cytotoxicity measured by the cell colony formation assay; format: cell-based; settings: HCT116 cells, 72 h drug incubation, colonies counted after 7 days; ID50 = drug concentration producing 50% inhibition of colony formation; read-out: IN VITRO ID 50 (nm) HCT116
Description: In Vitro Cytotoxicity Measured by the Cell Colony Formation Assay
Four hundred cells (HCT116) were plated in 60 mm Petri dishes containing 2.7 mL of medium (modified McCoy's 5a medium containing 10% fetal bovine serum and 100 units/mL penicillin and 100 µg/mL streptomycin). The cells were incubated in a CO2 incubator at 37° C. for 5 h for attachment to the bottom of Petri dishes. The compounds identified in Example 2 were made up fresh in medium at ten times the final concentration, and then 0.3 mL of this stock solution was added to the 2.7 mL of medium in the dish. The cells were then incubated with drugs for 72 h at 37° C. At the end of incubation the drug-containing media were decanted, the dishes were rinsed with 4 mL of Hank's Balance Salt Solution (HBSS), 5 mL of fresh medium was added, and the dishes were returned to the incubator for colony formation. The cell colonies were counted using a colony counter after incubation for 7 days.

Question: With `CC(=O)O[C@@]12CO[C@@H]1C[C@H](O)[C@@]1(C)C(=O)[C@H](OC(=O)C3CC3)C3=C(C)[C@@H](OC(=O)[C@H](O)[C@@H](NC(=O)OC(C)(C)C)c4ccco4)C[C@@](O)([C@@H](OC(=O)c4ccccc4)C12)C3(C)C` (some centres unmarked) [Compound 0843] as the compound, how does the IC50 read?
Answer: The IC50 was under 1 nM.

Question: How did the IC50 turn out when `CCC(=O)O[C@H]1C(=O)[C@@]2(C)C([C@H](OC(=O)c3ccccc3)[C@]3(O)C[C@H](OC(=O)[C@H](O)[C@@H](NC(=O)c4ccccc4)C4CC4)C(C)=C1C3(C)C)[C@]1(OC(C)=O)CO[C@@H]1C[C@@H]2O` (some centres unmarked) [Compound 0706] was run?
Answer: Its IC50 is under 1 nM.

Question: With `C/C=C/C(=O)O[C@H]1C(=O)[C@@]2(C)C([C@H](OC(=O)c3ccccc3)[C@]3(O)C[C@H](OC(=O)[C@H](O)[C@@H](NC(=O)OC(C)(C)C)c4ccoc4)C(C)=C1C3(C)C)[C@]1(OC(C)=O)CO[C@@H]1C[C@@H]2O` (some centres unmarked) [Compound 2380] as the compound, how does the IC50 read?
Answer: Its IC50 is under 1 nM.

Question: With `CC(=O)OC12COC1CC(O)C1(C)C(=O)C(OC(=O)c3cccs3)C3=C(C)C(OC(=O)C(O)C(NC(=O)OC(C)(C)C)c4ccccc4)CC(O)(C(OC(=O)c4ccccc4)C21)C3(C)C` (centres unmarked) [Compound 1988] as the compound, how does the IC50 read?
Answer: The IC50 was under 10 nM.

Question: With `CCCC(=O)O[C@H]1C(=O)[C@@]2(C)C([C@H](OC(=O)c3ccccc3)[C@]3(O)C[C@H](OC(=O)[C@H](O)[C@@H](NC(=O)OCC(C)C)c4cccs4)C(C)=C1C3(C)C)[C@]1(OC(C)=O)CO[C@@H]1C[C@@H]2O` (some centres unmarked) [Compound 3265] as the compound, how does the IC50 read?
Answer: The IC50 was under 10 nM.

Question: How did the IC50 turn out when `C/C=C/C(=O)O[C@H]1C(=O)[C@@]2(C)C([C@H](OC(=O)c3ccccc3)[C@]3(O)C[C@H](OC(=O)[C@H](O)[C@@H](NC(=O)OC(C)(C)C)c4ccc([N+](=O)[O-])cc4)C(C)=C1C3(C)C)[C@]1(OC(C)=O)CO[C@@H]1C[C@@H]2O` (some centres unmarked) [Compound 2439] was run?
Answer: The IC50 was under 10 nM.

Question: For `CCCC(=O)O[C@H]1C(=O)[C@@]2(C)C([C@H](OC(=O)c3ccccc3)[C@]3(O)C[C@H](OC(=O)[C@H](O)[C@@H](NC(=O)c4cccnc4)c4cccs4)C(C)=C1C3(C)C)[C@]1(OC(C)=O)CO[C@@H]1C[C@@H]2O` (some centres unmarked) [Compound 4190], which IC50 is on record?
Answer: The IC50 was under 10 nM.

Question: `C/C=C/C(=O)N[C@@H](c1cccs1)[C@@H](O)C(=O)O[C@H]1C[C@@]2(O)[C@@H](OC(=O)c3ccccc3)C3[C@](C)(C(=O)[C@H](OC(=O)CC)C(=C1C)C2(C)C)[C@@H](O)C[C@H]1OC[C@@]31OC(C)=O` (some centres unmarked) [Compound 3494] was tested. Which IC50 did it give?
Answer: The IC50 was under 1 nM.

Question: `CC(=O)O[C@@]12CO[C@@H]1C[C@H](O)[C@@]1(C)C(=O)[C@H](OC(=O)C=C(C)C)C3=C(C)[C@@H](OC(=O)[C@H](O)[C@@H](NC(=O)OC(C)(C)C)c4ccccn4)C[C@@](O)([C@@H](OC(=O)c4ccccc4)C12)C3(C)C` (some centres unmarked) [Compound 2464] was tested. Which IC50 did it give?
Answer: The IC50 was under 1 nM.

Question: `CC(=O)O[C@@]12CO[C@@H]1C[C@H](O)[C@@]1(C)C(=O)[C@H](OC(=O)C3CC3)C3=C(C)[C@@H](OC(=O)[C@H](O)[C@@H](NC(=O)OC(C)C)c4ccco4)C[C@@](O)([C@@H](OC(=O)c4ccccc4)C12)C3(C)C` (some centres unmarked) [Compound 3853] was tested. Which IC50 did it give?
Answer: The IC50 was under 1 nM.

Question: For `CCC(=O)O[C@H]1C(=O)[C@@]2(C)C([C@H](OC(=O)c3ccccc3)[C@]3(O)C[C@H](OC(=O)[C@H](O)[C@@H](NC(=O)OC(C)C)c4cccs4)C(C)=C1C3(C)C)[C@]1(OC(C)=O)CO[C@@H]1C[C@@H]2O` (some centres unmarked) [Compound 3361], which IC50 is on record?
Answer: The IC50 was under 1 nM.

Question: With `CC(=O)O[C@@]12CO[C@@H]1C[C@H](O)[C@@]1(C)C(=O)[C@H](OC(=O)C3CC3)C3=C(C)[C@@H](OC(=O)[C@H](O)[C@@H](NC(=O)c4ccccc4)c4cccs4)C[C@@](O)([C@@H](OC(=O)c4ccccc4)C12)C3(C)C` (some centres unmarked) [Compound 0919] as the compound, how does the IC50 read?
Answer: The IC50 was under 1 nM.

Question: Which IC50 does the source give for `CC(=O)O[C@@]12CO[C@@H]1C[C@H](O)[C@@]1(C)C(=O)[C@H](OC(=O)C3CC3)C3=C(C)[C@@H](OC(=O)[C@H](O)[C@@H](NC(=O)c4ccco4)c4ccco4)C[C@@](O)([C@@H](OC(=O)c4ccccc4)C12)C3(C)C` (some centres unmarked) [Compound 3866] here?
Answer: Its IC50 is under 1 nM.

Question: How did the IC50 turn out when `CC(=O)O[C@@]12CO[C@@H]1C[C@H](O)[C@@]1(C)C(=O)[C@H](OC(=O)C=C(C)C)C3=C(C)[C@@H](OC(=O)[C@H](O)[C@@H](NC(=O)OC(C)(C)C)c4cccs4)C[C@@](O)([C@@H](OC(=O)c4ccccc4)C12)C3(C)C` (some centres unmarked) [Compound 2503] was run?
Answer: Its IC50 is under 1 nM.
